Measurements from US20110028447A1, “INDAZOLE DERIVATIVES” (Pfizer Inc., priority 2008, published 2011).
Read-outs that look alike come from different tables or passages of the source.

Tests used:
human CB1 receptor [1] = biological target: T1, human CB1 receptor (Homo sapiens, UniProt P21554); test: [35S] GTPγS binding on membranes of CHO cells expressing the human CB1 receptor (agonism); assay type: biochemical; design: expressed in transfected cells; membrane preparation
Method in brief: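 Membranes from human CB1-expressing CHO cells (5 μg/well) incubated with test compound and [35S]GTPγS in 50 mM Tris pH 7.4, 100 mM NaCl, 3 mM MgCl2, 0.2 mM EGTA, 0.04% BSA for 45 min at 37 °C. Bound label collected by filtration, scintillation counted; EC50 from curve fits.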

human CB1 receptor [2] = biological target: T1, human CB1 receptor; test: Human CB1 receptor binding, [3H] CP-55,940 displacement on HEK cell membranes; design: expressed in transfected cells; host or cells: HEK cells, doxycycline-induced; membrane preparation
Method in brief: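 Membranes from doxycycline-induced HEK cells expressing human CB1 incubated 60 min at room temperature with [3H] CP-55,940 (final […]) in 50 mM Tris pH 7.4, 100 mM NaCl, 3 mM MgCl2, 0.2 mM EGTA, 0.04% BSA. Nonspecific binding defined with 50 μM WIN-55,212-2; filtration and scintillation counting gave EC50 and Ki.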

[3] = GTPγS EC50, human CB1, CHO cell membranes
[4] = human CB1, CHO cell membranes, read-out: GTPγS EC50

T1 sequence (P21554 whole entry): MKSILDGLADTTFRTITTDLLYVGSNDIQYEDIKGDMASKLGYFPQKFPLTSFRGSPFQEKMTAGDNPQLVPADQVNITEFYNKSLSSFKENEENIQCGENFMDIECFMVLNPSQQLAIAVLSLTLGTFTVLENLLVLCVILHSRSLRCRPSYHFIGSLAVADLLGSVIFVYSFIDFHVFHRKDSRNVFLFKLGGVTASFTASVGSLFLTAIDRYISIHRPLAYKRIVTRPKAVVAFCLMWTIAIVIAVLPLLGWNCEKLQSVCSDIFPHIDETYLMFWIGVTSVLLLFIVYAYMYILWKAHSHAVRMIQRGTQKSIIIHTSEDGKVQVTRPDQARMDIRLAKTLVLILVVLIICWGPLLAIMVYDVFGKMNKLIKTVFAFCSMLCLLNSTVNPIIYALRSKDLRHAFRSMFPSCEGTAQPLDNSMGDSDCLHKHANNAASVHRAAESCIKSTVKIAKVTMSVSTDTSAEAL

Row | Compound | EC50 (human CB1 receptor [1]; [3]) [nM] | Ki (human CB1 receptor [2]; CB1 Ki) [nM] | EC50 (human CB1 receptor [1]; [4]) [nM] | Ki (human CB1 receptor [2]; read-out: CB1 Ki) [nM]
1 | CC(C)(C)[C@H](NC(=O)c1nn(Cc2ccc(F)cc2)c2c(F)c(F)ccc12)C(=O)NCCO [Example 324] | 2.6 | 0.15 |  | 
2 | CC(C)(C)[C@H](NC(=O)c1nn(Cc2ccc(F)cc2)c2c(F)c(F)ccc12)C(=O)NC(CO)CO [Example 325] | 5.33 | 1.97 |  | 
3 | CC(C)(C)[C@H](NC(=O)c1nn(Cc2ccc(F)cc2)c2c(F)c(F)ccc12)C(=O)NCCS(C)(=O)=O [Example 326] | 53.2 | 15.8 |  | 
4 | CC(C)(C)[C@H](NC(=O)c1nn(Cc2ccc(F)cc2)c2c(F)c(F)ccc12)C(=O)NCCS(N)(=O)=O [Example 327] | 18.1 | 4.19 |  | 
5 | CC(C)(C)[C@H](NC(=O)c1nn(Cc2ccc(F)cc2)c2c(F)c(F)ccc12)C(=O)NCc1nnc(C(N)=O)o1 [Example 328] |  |  | 1.7 | 0.71
6 | Cc1nnc(CNC(=O)[C@@H](NC(=O)c2nn(Cc3ccc(F)cc3)c3c(F)c(F)ccc23)C(C)(C)C)o1 [Example 329] | 8 | 2.93 |  | 
7 | CC(C)(C)[C@H](NC(=O)c1nn(Cc2ccc(F)cc2)c2ccccc12)C(=O)N1CC(F)(F)C1 [Example 330] | 0.41 | 0.2 |  | 
8 | CC(C)(C)[C@H](NC(=O)c1nn(Cc2ccc(F)cc2)c2ccccc12)C(=O)N1CCC(F)(F)C1 [Example 331] | 9.9 | 2.2 |  | 
9 | CC(C)(C)[C@H](NC(=O)c1nn(Cc2ccc(F)cc2)c2ccccc12)C(=O)N1CCC(F)(F)CC1 [Example 332] | 27.3 | 15 |  | 
10 | CC(C)(C)[C@H](NC(=O)c1nn(Cc2ccc(F)cc2)c2ccccc12)C(=O)N1CCCC(F)(F)C1 [Example 333] | 3.75 | 1.49 |  | 
11 | CC(C)(C)[C@H](NC(=O)c1nn(Cc2ccc(F)cc2)c2ccccc12)C(=O)N1CCC(F)C1 (stereo partly drawn) [Example 334] | 9.41 | 1.72 |  | 
12 | CC(C)(C)[C@H](NC(=O)c1nn(Cc2ccc(F)cc2)c2ccccc12)C(=O)N1CCC(C#N)CC1 [Example 335] | 14.9 | 3.21 |  | 
13 | CC(C)(C)[C@H](NC(=O)c1nn(Cc2ccc(F)cc2)c2ccccc12)C(=O)N1CC(F)C1 [Example 336] | 0.52 | 0.11 |  | 
14 | CC(C)(C)[C@H](NC(=O)c1nn(Cc2ccc(F)cc2)c2ccccc12)C(=O)N1CCC(F)(CO)CC1 [Example 337] |  |  | 21.1 | 3.48
15 | CC(C)(O)C1CCN(C(=O)[C@@H](NC(=O)c2nn(Cc3ccc(F)cc3)c3ccccc23)C(C)(C)C)CC1 [Example 338] |  |  | 24.9 | 3.43
16 | CC(C)(C)[C@H](NC(=O)c1nn(Cc2ccc(F)cc2)c2ccccc12)C(=O)NC1CCCOC1 (stereo partly drawn) [Example 339] | 21.6 | 5.36 |  | 
17 | CC(C)(C)[C@H](NC(=O)c1nn(Cc2ccc(F)cc2)c2ccccc12)C(=O)N1CCC(F)CC1 [Example 341] | 13.9 | 3.74 |  | 
18 | CC(C)(C)[C@H](NC(=O)c1nn(Cc2ccc(F)cc2)c2ccccc12)C(=O)N1CC[C@H]1C(N)=O [Example 344] | 60.2 | 10.1 |  | 
19 | CC(C)(C)[C@H](NC(=O)c1nn(Cc2ccc(F)cc2)c2ccccc12)C(=O)N1CC(CNS(=O)(=O)C2CC2)C1 [Example 345] |  |  | 1.69 | 0.61
20 | CC(C)(C)[C@H](NC(=O)c1nn(Cc2ccc(F)cc2)c2ccccc12)C(=O)N1CC(CNC(N)=O)C1 [Example 346] |  |  | 12.1 | 5.14
21 | CC(C)(C)[C@H](NC(=O)c1nn(Cc2ccc(F)cc2)c2c(F)cccc12)C(=O)NCCS(N)(=O)=O [Example 348] | 19.7 | 7.83 |  | 
22 | CC(C)(C)[C@H](NC(=O)c1nn(Cc2ccc(C#N)cc2)c2c(F)cccc12)C(=O)N1CC(C(N)=O)C1 [Example 352] | 49.5 | 4.14 |  | 
23 | CC(C)(C)[C@H](NC(=O)c1nn(Cc2ccc(C#N)cc2)c2ccccc12)C(=O)N[C@H]1C[C@H](O)C1 [Example 354] | > 500 | 11.7 |  | 
24 | CC(C)(C)[C@H](NC(=O)c1nn(Cc2ccc(F)cc2)c2ccccc12)C(=O)NCCS(=O)(=O)N1CCOCC1 [Example 357] |  |  | 48.6 | 2.93
25 | CC(C)(C)[C@H](NC(=O)c1nn(Cc2ccc(C#N)cc2F)c2c(F)c(F)ccc12)C(N)=O [Example 358] | 7.46 | 4.89 |  | 
26 | CC(C)(C)[C@H](NC(=O)c1nn(Cc2ccc(C#N)cc2F)c2c(F)c(F)ccc12)C(=O)NCc1nnc(C(N)=O)o1 [Example 365] |  |  | 34.8 | 11.9
27 | CC(C)(C)[C@H](NC(=O)c1nn(Cc2ccc(C#N)cc2F)c2c(F)cccc12)C(N)=O [Example 368] | 4.55 | 2 |  | 
